Literature values as cited in US20120064058A1, “COMPOSITIONS FOR PROTEIN-BASED DIETARY PRODUCTS” (ITALFARMACIA SRL, priority 2008, published 2012).

Columns and labels:
[1] = compared with untreated diabetic rats

In the case of `NCC(=O)O` [Glycine], the “expression of O-acetyl sialic acid in brain vessels” value (diabetic rats; [1]) is listed as “diminished expression”, the “incidence of opacity in lens and microaneurysms in the eyes” value (diabetic rats; [1]) is listed as “reduced incidence” and the corporal weight loss (diabetic rats; in comparison with non-treated animals) is listed as “less intense corporal weight loss”.

For `N=C(N)NCCC[C@H](N)C(=O)O` [L-Arginine], the “excretion of orotic acid in the urine” value (rats) is given as “less excretion of orotic acid in the urine” and the kidney hypertrophy (rats; long-term consequence of a protein rich regimen) is given as “can prevent kidney hypertrophy”.

For `NCCS(=O)(=O)O` [L-Taurine], the renal functionality (diabetic rats) is listed as “beneficial effects on renal functionality”.
